Experimental data published in PMC6733935, “A convenient and efficient total solid-phase synthesis of DOTA-functionalized tumor-targeting peptides for PET imaging of cancer” (EJNMMI Research, 2019).
Where two headings read alike, the source gives them in different places. Square brackets hold non-standard residues; d marks the D form. Peptide text beside a SMILES is read from it. * marks the point of attachment. DOTA = O=C(O)CN1CCN(CC(=O)O)CCN(CC(=O)*)CCN(CC(=O)O)CC1; Cha = N[C@@H](CC1CCCCC1)C(=O)O; Nle = CCCC[C@H](N)C(=O)O; Ahx = NCCCCCC(=O)O

Tests used:
MDA-MB-231 tumor = test: NanoPET/CT imaging of MDA-MB-231 tumor-bearing nude mice; format: in vivo; conditions: 60 min p.i.
Description: PET/CT scans were performed using a preclinical NanoPET/CT scanner (Mediso, Hungary) on MDA-MB-231 tumor-bearing ~ 8-week-ld female nude mice. Mice (19–23 g) were anesthetized prior to the imaging with a mixture of (100 μL, subcutaneous injection) ketamine and xylazine. One hour after the intravenous injection of radiolabeled BN peptide (100 μL peptide, 100–150 μCi, total peptide dose ~ 100 ng) via the tail vein into the anesthetized mouse, each mouse was placed in the camera in prone position and static image was acquired for 30 min. The acquired raw data in these imaging studies were reconstructed to visible image form using Interveiw Fusion software (Mediso, Hungary).

[1] = system: BN/GRP receptor-positive MDA-MB-231 tumors; test: Receptor blocking study in MDA-MB-231 tumor-bearing nude mice; format: in vivo
Description: For the receptor blocking studies, each animal was injected with excess cold of BN peptide (~ 200 μg) 20 min prior to the radiotracers injection. The animals (n = 2 per group) were sacrificed at 60 min post radiotracers injection and the % ID/g for the tumor and major organs was calculated as stated before.
^68Ga-labeled BN peptides were further investigated in nude mice carrying estrogen-independent and highly aggressive MDA-MB-231 xenografts in order to determine their potential for diagnosis of BN/GRP receptor-positive breast cancer in vivo (Table 4). […] (with 28% washout from the tumors over 2 h). […] When a blocking dose of 300 μg of nonradioactive BN peptide was injected intramuscularly for in vivo saturation of receptors 20 min prior to the administration of radiopeptide, it was observed that the uptake in the tumors was reduced by approximately 80% (0.47 ± 0.06% ID/g blocked vs. 2.32 ± 0.25% ID/g unblocked, P = 0.002), highlighting the specificity of the ^68Ga-labeled BN peptide for respective BN/GRP receptor-positive breast cancer cells. […] The tumor uptake values of other BN peptides varied from 1.78 ± 0.40% to 2.15 ± 0.33% ID/g at 1 h p.i and from 0.84 ± 0.13% to 1.37 ± 0.25% ID/g at 2 h p.i. (Table 4). With the blocking dose, good reduction in the tumors (from 51 to 80%) was attained validating the in vivo tumor receptor specificity of these radiolabeled BN peptides for BN/GRP receptor-positive breast cancer cells.

[2] = system: PC3 prostate carcinoma xenografts; format: in vivo, nude mice; conditions: for uptake in the PC3 tumors / tumor-to-blood ratio / tumor-to-muscle ratio: nude mice bearing PC3 xenografts
Description: BN/GRP receptor-positive MDA-MB-231 and PC3 cell lines (American Type Culture Collection, Rockville, USA) were grown as monolayers at 37 °C in a humidified atmosphere containing RPMI-1640 culture media with 10% fetal bovine serum (FBS) in tissue culture flasks. Twenty-four hours prior to conducting the tumor implantation, the media was replaced with RPMI-1640/10% FBS. The cells were grown to 80-90% confluency and harvested by trypsinization. After centrifugation, about 50 million cells were suspended in 1 mL media for implantation into mice. To prepare cells for inoculation, MDA-MB-231 or PC3 cancer cells with media were centrifuged, the media decanted, and the cell pellet was mixed with phosphate-buffered saline (PBS) to reach a concentration of approximately 5 million cells per 100 μL PBS.
Based on encouraging biological and tumor-targeting properties, ^68Ga-DOTA(cyclen)-Ahx-BN was further tested in nude mice bearing PC3 prostate carcinoma xenografts. […] Kidney was the only major organ which retained most of the radioactivity (up to 6% ID/g) after 2 h p.i. […] The tumor-to-blood and tumor-to-muscle ratios were 3.27 and 12.62 at 1 h and 2.85 and 11.40 at 2 h p.i., respectively (data not shown).

CCCC[C@H](NC(=O)[C@H](Cc1c[nH]cn1)NC(=O)[C@H](CC1CCCCC1)NC(=O)[C@@H](NC(=O)[C@H](C)NC(=O)[C@H](Cc1c[nH]c2ccccc12)NC(=O)[C@H](CCC(N)=O)NC(=O)[C@H](CS)NC(=O)CNC(=O)CNC(=O)CCCCCNC(=O)CN1CCN(CC(=O)O)CCN(CC(=O)O)CCN(CC(=O)O)CC1)C(C)C)C(=O)N[C@@H](CCSC)C(N)=O [^68Ga-DOTA-Ahx-BN Cyclen, metal not drawn] ({DOTA-Ahx}-GGCQWAV[Cha]H[Nle]M-NH2)
Tumor visibility in PET image under blocking condition (MDA-MB-231 tumor; in the presence of 300 μg cold BN peptide): hardly detectable | Tumor visibility in PET image (MDA-MB-231 tumor; ~100 ng, ~100 μCi, unblocked): clearly visible | Tumor uptake, blocked ([1]; blocking dose of 300 μg nonradioactive BN peptide 20 min prior to radiopeptide, 1 h p.i., n = 2 per group): 0.47 ± 0.06 % ID/g | reduction of uptake in the tumors with blocking dose ([1]; blocking dose of nonradioactive BN peptide 20 min prior, 1 h p.i.): approximately 80% | blockade of uptake in pancreas with blocking dose ([1]; same blocking dose, maximum blockade): 80% | radioactivity retained in Kidney ([2]; mouse, in vivo): up to 6 % ID/g | uptake in the PC3 tumors ([2]; 1 h p.i.): 2.05 ± 0.54 % ID/g | tumor-to-blood ratio ([2]; 1 h p.i. (data not shown)): 3.27 | tumor-to-muscle ratio ([2]; 1 h p.i. (data not shown)): 12.62 | uptake in the PC3 tumors ([2]; 2 h p.i.): 1.34 ± 0.22 % ID/g | tumor-to-blood ratio ([2]; 2 h p.i. (data not shown)): 2.85 | tumor-to-muscle ratio ([2]; 2 h p.i. (data not shown)): 11.40
